Data reported in patent US9790169B2, “IDO inhibitors” (BRISTOL-MYERS SQUIBB COMPANY, priority 2015, dated 2017).

Molecular target: human IDO1 (Homo sapiens, UniProt P14902)
Experiment: Assessment of human IDO-1 inhibitory activity in HEK cells (human IDO1/HEK293 cells, kynurenine read-out with Ehrlich reagent, absorbance 490 nm)
Assay type: cell-based
Design: expressed in transfected cells
Conditions: HEK Human IDO-1 cellular assay
In short: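 HEK293 cells stably expressing human IDO1 were seeded at 10,000 per well in phenol red-free RPMI with 10% FBS, treated with compound for 20 h at 37 °C. Kynurenine was measured after TCA (0.2% final) and 30 min at 50 °C, using Ehrlich reagent, A490. IC50 normalised to DMSO (0%) and 500 nM reference standard (100%).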

Sequence of human IDO1 (P14902 whole entry): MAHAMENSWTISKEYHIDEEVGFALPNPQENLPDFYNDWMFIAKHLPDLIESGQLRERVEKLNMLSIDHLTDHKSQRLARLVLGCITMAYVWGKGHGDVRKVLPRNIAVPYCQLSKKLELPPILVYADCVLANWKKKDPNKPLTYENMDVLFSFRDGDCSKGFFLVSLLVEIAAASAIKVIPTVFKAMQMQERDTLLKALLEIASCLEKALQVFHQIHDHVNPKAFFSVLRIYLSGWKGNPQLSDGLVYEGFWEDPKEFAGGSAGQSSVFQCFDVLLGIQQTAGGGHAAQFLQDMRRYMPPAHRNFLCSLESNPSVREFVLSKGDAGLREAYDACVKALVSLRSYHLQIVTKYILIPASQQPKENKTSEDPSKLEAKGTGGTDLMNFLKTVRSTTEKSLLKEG

SMILES	IC50 [nM]
CC(CC(=O)O)c1ccc(N(CC(C)(C)O)C2CCOCC2)c(Nc2ccc(C#N)cc2)c1 (single isomer, unassigned) [Example 196, 3-(3-((4-Cyanophenyl)amino)-4-((2-hydroxy-2-methylpropyl)(tetrahydro-2H-pyran-4-yl)amino)phenyl)butanoic acid]	< 5
CCC(CC(=O)O)c1ccc(N2CCC[C@@H]2C(C)(C)O)c(Nc2ccc(F)cc2)c1 (single isomer, unassigned) [Example 784]	> 50
CCOc1ccc(NC(=O)Nc2cc(C(C)CC(=O)O)ccc2N(CC(C)C)C2CCOCC2)cc1 (single isomer, unassigned) [Example 960, 3-(3-(3-(4-ethoxyphenyl)ureido)-4-(isobutyl(tetrahydro-2H-pyran-4-yl)amino)phenyl)butanoic acid]	< 50
CCC(CC(=O)O)c1ccc(N2CCC[C@@H]2C(C)(C)O)c(Nc2ccc3c(c2)OC(F)(F)O3)c1 (single isomer, unassigned) [Example 781]	> 50
COCC(CC(=O)O)c1ccc(N(CC2CC2)C2CCOCC2)c(Nc2ccc(C(N)=O)nc2)c1 (single isomer, unassigned) [Example 688, 3-(3-((6-carbamoylpyridin-3-yl)amino)-4-((cyclopropylmethyl) (tetrahydro-2H-pyran-4-yl)amino)phenyl)-4-methoxybutanoic acid]	> 50
CCC(CC(=O)O)c1ccc(N2CCOC[C@H]2C(C)C)c(NC(=O)Nc2ccc(C)cc2)c1 (single isomer, unassigned) [Example 895]	> 50
COCC(CC(=O)O)c1ccc(N(CC2CC2)C2CCOCC2)c(Nc2ccc(Cl)c(OCC3CC3)c2)c1 (single isomer, unassigned) [Example 683, 3-(3-((4-chloro-3-(cyclopropylmethoxy)phenyl)amino)-4-((cyclopropylmethyl) (tetrahydro-2H-pyran-4-yl)amino)phenyl)-4-methoxybutanoic acid]	> 50
CC[C@@H](CC(=O)O)c1ccc(N2CCC[C@@H]2C(C)(C)O)c(Nc2ccc(C#N)cc2)c1 (single isomer, unassigned) [Example 771]	< 50
COCC(CC(=O)O)c1cc(F)c(N(CC(C)C)C2CCCCC2)c(NC(=O)Nc2ccc(Cl)cc2F)c1 (single isomer, unassigned) [Example 1156, 3-(3-(3-(4-chloro-2-fluorophenyl)ureido)-4-(cyclohexyl(isobutyl)amino)-5-fluorophenyl)-4-methoxybutanoic acid]	< 5
CCC(CC(=O)O)c1ccc(N(CC(C)C)C2CCCCC2)c(Nc2ccc(C)cc2)c1 (single isomer, unassigned) [Example 304, 3-(4-(cyclohexyl(isobutyl)amino)-3-(p-tolylamino)phenyl)pentanoic acid]	< 5
CCOc1ccc(NC(=O)Nc2cc([C@@H](CC)CC(=O)O)ccc2N(CC(C)C)C2CCS(=O)(=O)CC2)cc1 (single isomer, unassigned) [Example 217]	> 50
COCC(CC(=O)O)c1ccc(N(CC(C)C)C2CCCCC2)c(NC(=O)Nc2cncnc2)c1 (single isomer, unassigned) [991-2]	< 5
CC[C@@H](CC(=O)O)c1ccc(N(CC)C2CCOCC2)c(Nc2cnc3cnccn23)c1 (single isomer, unassigned) [Example 472]	> 50
CCN(c1ccc([C@H](COC)CC(=O)O)cc1NC(=O)Nc1ccc(OC)cc1F)C1CCOCC1 (single isomer, unassigned) [Example 435]	> 50
CCN(c1ccc([C@@H](COC)CC(=O)O)cc1NC(=O)Nc1ccc(OC(F)F)cc1)C1CCOCC1 (single isomer, unassigned) [Example 425]	> 50
CCC(CC(=O)O)c1ccc(N(CC(C)C)C2CCCCC2)c(NC(=O)Cc2cc(F)ccc2F)c1 (racemic) [Example 1087]	< 5
COCC(CC(=O)O)c1ccc(N(CC(C)C)CC(C)C)c(NC(=O)Nc2ccc(Cl)cc2F)c1 (single isomer, unassigned) [995-1]	< 5
CCOc1ccc(Nc2cc([C@@H](CC)CC(=O)O)ccc2N(CC)C2CCOCC2)cc1 (single isomer, unassigned) [Example 474]	< 5
COCC(CC(=O)O)c1ccc(N(CC(C)C)C2CCCCC2)c(NC(=O)Nc2ccccc2F)c1 (racemic) [Example 983, (+/−)-3-(4-(Cyclohexyl(isobutyl)amino)-3-(3-(2-fluorophenyl)ureido)phenyl)-4-methoxybutanoic acid]	< 5
CCN(c1ccc([C@@H](COC)CC(=O)O)cc1Nc1cnc(OC)nc1)C1CCOCC1 (single isomer, unassigned) [Example 350]	< 50
CCC(CC(=O)O)c1ccc(N(CC(C)C)C2CCCCC2)c(NC(=O)Cc2cc(F)ccc2F)c1 (single isomer, unassigned) [Example 1098 E1]	< 5
CC[C@@H](CC(=O)O)c1ccc(N2CCOC[C@@H]2C(C)C)c(NC(=O)Nc2ccc(Cl)cc2F)c1 (single isomer, unassigned) [Example 75]	< 50
CCC(CC(=O)O)c1ccc(N2CCC[C@@H]2C(C)(C)O)c(Nc2ccc(C#N)cc2)c1 (single isomer, unassigned) [Example 782]	< 50
CC(C)CN(CC(C)C)c1ccc(C(CC(=O)O)CN(C)C)cc1NC(=O)Nc1cncnc1 (racemic) [Example 1001, (+/−)-3-(4-(Disobutylamino)-3-(3-(pyrimidin-5-yl)ureido)phenyl)-4-(dimethylamino)butanoic acid]	> 50
COCC(CC(=O)O)c1ccc(N(CC(C)C)C2CCCCC2)c(NC(=O)Nc2cc(C)on2)c1 (single isomer, unassigned) [987-1]	< 50
CCCN(c1ccc([C@@H](COC)CC(=O)O)cc1Nc1ccc2c(c1)OC(F)(F)O2)C1CCOCC1 (single isomer, unassigned) [Example 561]	> 50
CCC(CC(=O)O)c1ccc(N2C[C@@H](C)O[C@@H](C)C2)c(Nc2ccc(C#N)cc2)c1 (single isomer, unassigned) [Example 764]	< 50

Second part, the compound after the results:

IC50 [nM]	SMILES
< 5	CCC(CC(=O)O)c1cc(F)c(N(CC(C)C)CC(C)C)c(Nc2ccc(Cl)c(OCC(F)(F)F)c2)c1 (single isomer, unassigned) [Example 102, 3-(3-((4-chloro-3-(2,2,2-trifluoroethoxy)phenyl)amino)-4-(diisobutylamino)-5-fluorophenyl)pentanoic acid]
< 50	CCOc1ccc(Nc2cc([C@@H](CC)CC(=O)O)ccc2N(CC(C)(C)O)C2CCOCC2)c(F)c1 (single isomer, unassigned) [Example 201]
< 5	CC[C@H](CC(=O)O)c1ccc(N(CC(C)(C)O)C2CCCCC2)c(Nc2ccc(C#N)cc2)c1 (single isomer, unassigned) [Example 238]
> 50	CCN(c1ccc(C(C)CC(=O)O)cc1NC(=O)Nc1ccccc1F)C1CCOCC1 (single isomer, unassigned) [Example 640, 3-(4-(ethyl(tetrahydro-2H-pyran-4-yl)amino)-3-(3-(2-fluorophenyl)ureido)phenyl) butanoic acid]
< 50	CC[C@H](CC(=O)O)c1ccc(N(CC(C)(C)O)C2CCOCC2)c(Nc2ccc(Cl)c(OCC(F)(F)F)c2)c1 (single isomer, unassigned) [Example 205]
< 50	CCOc1ccc(Nc2cc([C@@H](CC)CC(=O)O)ccc2N2CCOC[C@@H]2C(C)C)cc1 (single isomer, unassigned) [Example 82]
< 5	CC[C@H](CC(=O)O)c1ccc(N(CC)C2CCCCC2)c(Nc2ccc(OC(F)F)cc2)c1 (single isomer, unassigned) [Example 290]
< 50	CC(C)(CC(=O)O)c1ccc(N2CCC[C@H]2C(C)(C)O)c(Nc2ccc(C#N)cc2)c1 [Example 809, (S)-3-(3-((4-cyanophenyl)amino)-4-(2-(2-hydroxypropan-2-yl)pyrrolidin-1-yl)phenyl)-3-methylbutanoic acid]
< 5	COCC(CC(=O)O)c1ccc(N(CC(C)C)C2CCCCC2)c(NC(=O)Nc2ccc(C)cc2)c1 (racemic) [Example 988, (+/−)-3-(4-(Cyclohexyl(isobutyl)amino)-3-(3-(p-tolyl)ureido)phenyl)-4-methoxybutanoic acid]
> 50	CC[C@H](CC(=O)O)c1ccc(N(CC)C2CCOCC2)c(NC(=O)Nc2cc(C)on2)c1 (single isomer, unassigned) [Example 534]
< 50	CCOc1ncc(Nc2cc(C(C)(C)CC(=O)O)ccc2N(CC(C)C)CC(C)C)cn1 [Example 148, 3-(4-(diisobutylamino)-3-((2-ethoxypyrimidin-5-yl)amino)phenyl)-3-methyl butanoic acid]
< 5	CCN(c1ccc(C(C)(C)CC(=O)O)cc1Nc1ccc(Cl)cc1)C1CCC(C)(O)CC1 (stereo not drawn) [Example 1, 3-(3-((4-Chlorophenyl)amino)-4-(ethyl(4-hydroxy-4-methylcyclohexyl)amino)phenyl)-3-methylbutanoic acid]
< 5	Cc1ccc(CC(=O)Nc2cc(C(CC(=O)O)C3CC3)ccc2N(CC(C)C)C2CCCCC2)cc1 (single isomer, unassigned) [Example 1247, 3-(4-(Cyclohexyl(isobutyl)amino)-3-(2-(p-tolyl)acetamido)phenyl)-3-cyclopropylpropanoic acid]
> 50	CCN(c1ccc(C(C)CC(=O)O)cc1Nc1cnc(C)nc1)C1CCOCC1 (single isomer, unassigned) [Example 636, 3-(4-(ethyl(tetrahydro-2H-pyran-4-yl)amino)-3-((2-methylpyrimidin-5-yl)amino)phenyl)butanoic acid]
> 50	CCN(c1ccc(C(C)CC(=O)O)cc1NC(=O)Nc1ccc(C)cc1)C1CCOCC1 (single isomer, unassigned) [Example 641, 3-(4-(ethyl(tetrahydro-2H-pyran-4-yl)amino)-3-(3-(p-tolyl)ureido)phenyl)butanoic acid]
